Measured values published in BindingDB's records for doi:10.1124/jpet.301.1.37 (National Institutes of Health, 2002).
Values joined by “and” are separate entries in the source; they are usually repeats but may differ in a detail not shown here. Equal entries are not always repeated.

Columns and labels:
VIP peptides [1] = biological target: T1, VIP peptides (Rattus norvegicus, UniProt P01283)
T1 sequence (P01283 whole entry): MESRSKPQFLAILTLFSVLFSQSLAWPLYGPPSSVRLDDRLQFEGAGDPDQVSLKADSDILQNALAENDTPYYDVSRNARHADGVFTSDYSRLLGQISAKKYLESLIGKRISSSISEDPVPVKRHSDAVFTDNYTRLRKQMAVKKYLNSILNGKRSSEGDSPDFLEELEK

VIP peptides [2] = biological target: T2, VIP peptides (Cavia porcellus, UniProt P04566)
T2 sequence (P04566 whole entry): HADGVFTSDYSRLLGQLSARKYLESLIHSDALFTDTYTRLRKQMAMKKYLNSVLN

VIP peptides [3] = biological target: T3, VIP peptides (Homo sapiens, UniProt P01282)
T3 sequence (P01282 whole entry): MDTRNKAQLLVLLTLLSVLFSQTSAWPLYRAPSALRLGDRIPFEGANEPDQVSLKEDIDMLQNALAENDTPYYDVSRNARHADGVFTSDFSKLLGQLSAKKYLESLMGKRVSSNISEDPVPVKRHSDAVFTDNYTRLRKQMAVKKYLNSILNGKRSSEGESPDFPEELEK

Ki (VIP peptides [1]) | Ki (VIP peptides [2]) [nM] | Ki (VIP peptides [3]) | Compound
1.1 nM and 3.2 nM and 2.8 nM | 8.5 | 3.8 nM and 7.6 nM and 7.1 nM | H-HSDAVFTDNYTRLRKQMAVKKALNSILN-NH2 [VIP Ala22]
16.2 nM and 107 nM and 53.7 nM | 66.1 | 17.8 nM and 51.3 nM and 35.7 nM | CC[C@H](C)[C@H](NC(=O)[C@H](CO)NC(=O)[C@H](CC(N)=O)NC(=O)[C@H](CC(C)C)NC(=O)[C@H](Cc1ccc(O)cc1)NC(=O)[C@H](CCCCN)NC(=O)[C@H](CCCCN)NC(=O)[C@@H](NC(=O)[C@H](C)NC(=O)[C@H](CCSC)NC(=O)[C@H](CCC(N)=O)NC(=O)[C@H](CCCCN)NC(=O)[C@H](CCCN=C(N)N)NC(=O)[C@H](CC(C)C)NC(=O)[C@H](CCCN=C(N)N)NC(=O)[C@@H](NC(=O)[C@H](Cc1ccc(O)cc1)NC(=O)[C@H](CC(N)=O)NC(=O)[C@H](CC(=O)O)NC(=O)[C@H](C)NC(=O)[C@H](Cc1ccccc1)NC(=O)[C@@H](NC(=O)[C@H](C)NC(=O)[C@H](CC(=O)O)NC(=O)[C@H](CO)NC(=O)[C@@H](N)Cc1cnc[nH]1)C(C)C)[C@@H](C)O)C(C)C)C(=O)N[C@@H](CC(C)C)C(=O)N[C@@H](CC(N)=O)C(N)=O [VIP Ala7]
43.7 nM and 245 nM and 148 nM | 427 | 74.1 nM and 182 nM and 123 nM | H-HSAAVFTDNYTRLRKQMAVKKYLNSILN-NH2 [VIP Ala3]
1.6 nM and 5 nM and 3.6 nM | 4 | 0.74 nM and 4.5 nM and 3.9 nM | H-HSDAVFTDNYTRLRKQAAVKKYLNSILN-NH2 [VIP Ala17]
0.85 nM and 2.8 nM and 2.2 nM | 3.2 | 0.59 nM and 4.1 nM and 2.1 nM | H-HSDAVFTDNYTRLRKQMAAKKYLNSILN-NH2 [VIP Ala19]
30 nM and 45.7 nM and 51.3 nM | 61.6 | 24.6 nM and 174 nM and 111 nM | H-HSDAVFTDNYTRLAKQMAVKKYLNSILN-NH2 [VIP Ala14]
12.3 nM and 34.7 nM and 30 nM | 56.1 | 53.7 nM and 61.7 nM and 50.1 nM | H-HSDAVFTDNYTALRKQMAVKKYLNSILN-NH2 [VIP Ala12]
0.59 nM and 4.7 nM and 2 nM | 2.4 | 0.37 nM and 2.3 nM and 2.5 nM | H-HSDAVFTDNYTRLRKQMAVKKYLNSIAN-NH2 [VIP Ala27]
0.16 nM and 1.3 nM and 0.49 nM | 1.6 | 0.29 nM and 1.8 nM and 1.4 nM | H-HSDAVFTDAYTRLRKQMAVKKYLNSILN-NH2 [VIP Ala9]

Compound | Ki (VIP peptides [1]) | Ki (VIP peptides [2]) [nM] | Ki (VIP peptides [3])
CC[C@H](C)[C@H](NC(=O)[C@H](CO)NC(=O)[C@H](CC(N)=O)NC(=O)[C@H](CC(C)C)NC(=O)[C@H](Cc1ccc(O)cc1)NC(=O)[C@H](CCCCN)NC(=O)[C@H](CCCCN)NC(=O)[C@@H](NC(=O)[C@H](C)NC(=O)[C@H](CCSC)NC(=O)[C@H](CCC(N)=O)NC(=O)[C@H](CCCCN)NC(=O)[C@@H](CCCN=C(N)N)NC(=O)[C@H](CC(C)C)NC(=O)[C@H](CCCN=C(N)N)NC(=O)[C@@H](NC(=O)[C@H](Cc1ccc(O)cc1)NC(=O)[C@H](CC(N)=O)NC(=O)[C@H](CC(=O)O)NC(=O)[C@@H](NC(=O)[C@H](Cc1ccccc1)NC(=O)[C@@H](NC(=O)[C@H](C)NC(=O)[C@H](CC(=O)O)NC(=O)[C@H](CO)NC(=O)[C@@H](N)Cc1cnc[nH]1)C(C)C)[C@@H](C)O)[C@@H](C)O)C(C)C)C(=O)N[C@@H](CC(C)C)C(=O)N[C@@H](CC(N)=O)C(N)=O [VIP [D-Arg14]] | 10.5 nM and 22.4 nM and 27.5 nM | 36.4 | 10.7 nM and 31.6 nM and 24.6 nM
CC[C@H](C)[C@H](NC(=O)[C@H](CO)NC(=O)[C@H](CC(N)=O)NC(=O)[C@H](CC(C)C)NC(=O)[C@@H](Cc1ccc(O)cc1)NC(=O)[C@H](CCCCN)NC(=O)[C@H](CCCCN)NC(=O)[C@@H](NC(=O)[C@H](C)NC(=O)[C@H](CCSC)NC(=O)[C@H](CCC(N)=O)NC(=O)[C@H](CCCCN)NC(=O)[C@H](CCCN=C(N)N)NC(=O)[C@H](CC(C)C)NC(=O)[C@H](CCCN=C(N)N)NC(=O)[C@@H](NC(=O)[C@H](Cc1ccc(O)cc1)NC(=O)[C@H](CC(N)=O)NC(=O)[C@H](CC(=O)O)NC(=O)[C@@H](NC(=O)[C@H](Cc1ccccc1)NC(=O)[C@@H](NC(=O)[C@H](C)NC(=O)[C@H](CC(=O)O)NC(=O)[C@H](CO)NC(=O)[C@@H](N)Cc1cnc[nH]1)C(C)C)[C@@H](C)O)[C@@H](C)O)C(C)C)C(=O)N[C@@H](CC(C)C)C(=O)N[C@@H](CC(N)=O)C(N)=O [VIP [D-Tyr22]] | 11.8 nM and 28.2 nM and 38.9 nM | 29.5 | 128 nM and 95.5 nM and 112 nM
CC[C@H](C)[C@H](NC(=O)[C@H](CO)NC(=O)[C@H](CC(N)=O)NC(=O)[C@H](CC(C)C)NC(=O)[C@H](Cc1ccc(O)cc1)NC(=O)[C@H](CCCCN)NC(=O)[C@H](CCCCN)NC(=O)[C@@H](NC(=O)[C@H](C)NC(=O)[C@H](CCSC)NC(=O)[C@H](CCC(N)=O)NC(=O)[C@H](CCCCN)NC(=O)[C@H](CCCN=C(N)N)NC(=O)[C@H](CC(C)C)NC(=O)[C@H](CCCN=C(N)N)NC(=O)[C@@H](NC(=O)[C@H](Cc1ccc(O)cc1)NC(=O)[C@H](CC(N)=O)NC(=O)[C@H](CC(=O)O)NC(=O)[C@H](NC(=O)[C@H](Cc1ccccc1)NC(=O)[C@@H](NC(=O)[C@H](C)NC(=O)[C@H](CC(=O)O)NC(=O)[C@H](CO)NC(=O)[C@@H](N)Cc1cnc[nH]1)C(C)C)[C@H](C)O)[C@@H](C)O)C(C)C)C(=O)N[C@@H](CC(C)C)C(=O)N[C@@H](CC(N)=O)C(N)=O [VIP [D-Thr7]] | 87.1 nM and 324 nM and 437 nM | 200 | 162 nM and 288 nM and 214 nM
CC[C@H](C)[C@H](NC(=O)[C@H](CO)NC(=O)[C@H](CC(N)=O)NC(=O)[C@H](CC(C)C)NC(=O)[C@H](Cc1ccc(O)cc1)NC(=O)[C@H](CCCCN)NC(=O)[C@H](CCCCN)NC(=O)[C@H](NC(=O)[C@H](C)NC(=O)[C@H](CCSC)NC(=O)[C@H](CCC(N)=O)NC(=O)[C@H](CCCCN)NC(=O)[C@H](CCCN=C(N)N)NC(=O)[C@H](CC(C)C)NC(=O)[C@H](CCCN=C(N)N)NC(=O)[C@@H](NC(=O)[C@H](Cc1ccc(O)cc1)NC(=O)[C@H](CC(N)=O)NC(=O)[C@H](CC(=O)O)NC(=O)[C@@H](NC(=O)[C@H](Cc1ccccc1)NC(=O)[C@@H](NC(=O)[C@H](C)NC(=O)[C@H](CC(=O)O)NC(=O)[C@H](CO)NC(=O)[C@@H](N)Cc1cnc[nH]1)C(C)C)[C@@H](C)O)[C@@H](C)O)C(C)C)C(=O)N[C@@H](CC(C)C)C(=O)N[C@@H](CC(N)=O)C(N)=O [VIP [D-Val19]] | 6.3 nM and 29.5 nM and 25.1 nM | 34.6 | 10.9 nM and 69.2 nM and 58.9 nM
CC[C@H](C)[C@H](NC(=O)[C@H](CO)NC(=O)[C@H](CC(N)=O)NC(=O)[C@H](CC(C)C)NC(=O)[C@H](Cc1ccc(O)cc1)NC(=O)[C@H](CCCCN)NC(=O)[C@H](CCCCN)NC(=O)[C@@H](NC(=O)[C@H](C)NC(=O)[C@H](CCSC)NC(=O)[C@H](CCC(N)=O)NC(=O)[C@H](CCCCN)NC(=O)[C@H](CCCN=C(N)N)NC(=O)[C@H](CC(C)C)NC(=O)[C@@H](CCCN=C(N)N)NC(=O)[C@@H](NC(=O)[C@H](Cc1ccc(O)cc1)NC(=O)[C@H](CC(N)=O)NC(=O)[C@H](CC(=O)O)NC(=O)[C@@H](NC(=O)[C@H](Cc1ccccc1)NC(=O)[C@@H](NC(=O)[C@H](C)NC(=O)[C@H](CC(=O)O)NC(=O)[C@H](CO)NC(=O)[C@@H](N)Cc1cnc[nH]1)C(C)C)[C@@H](C)O)[C@@H](C)O)C(C)C)C(=O)N[C@@H](CC(C)C)C(=O)N[C@@H](CC(N)=O)C(N)=O [VIP [D-Arg12]] | 2.8 nM and 11.7 nM and 19.1 nM | 16.9 | 2.2 nM and 18.2 nM and 14.4 nM
CC[C@H](C)[C@H](NC(=O)[C@H](CO)NC(=O)[C@H](CC(N)=O)NC(=O)[C@H](CC(C)C)NC(=O)[C@H](Cc1ccc(O)cc1)NC(=O)[C@H](CCCCN)NC(=O)[C@H](CCCCN)NC(=O)[C@@H](NC(=O)[C@H](C)NC(=O)[C@H](CCSC)NC(=O)[C@@H](CCC(N)=O)NC(=O)[C@H](CCCCN)NC(=O)[C@H](CCCN=C(N)N)NC(=O)[C@H](CC(C)C)NC(=O)[C@H](CCCN=C(N)N)NC(=O)[C@@H](NC(=O)[C@H](Cc1ccc(O)cc1)NC(=O)[C@H](CC(N)=O)NC(=O)[C@H](CC(=O)O)NC(=O)[C@@H](NC(=O)[C@H](Cc1ccccc1)NC(=O)[C@@H](NC(=O)[C@H](C)NC(=O)[C@H](CC(=O)O)NC(=O)[C@H](CO)NC(=O)[C@@H](N)Cc1cnc[nH]1)C(C)C)[C@@H](C)O)[C@@H](C)O)C(C)C)C(=O)N[C@@H](CC(C)C)C(=O)N[C@@H](CC(N)=O)C(N)=O [VIP [D-Gln16]] | 1 nM and 5.6 nM and 9.3 nM | 11.5 | 1.1 nM and 2.9 nM and 3.5 nM
